Reference: ChEMBL document CHEMBL1201862, “PubChem BioAssay data set” (2004)
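Where inhibition never reached the appropriate level, the endpoint shown equals the highest concentration tested. Otherwise, values were interpolated linearly from a five-concentration, 48-hour dose response in 96-well plates. GI50: concentration for 50% inhibition of growth.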 The source made the active and inactive calls. Rule as the data show it: active = GI50 up to about 1.1 µM and inactive = higher.

Experiments:
Test in all cases: NCI anticancer screen, dose series, 48 h
[1] = tested on: SK-MEL-28
[2] = tested on: SNB-75
[3] = tested on: A549
[4] = tested on: DU-145
[5] = tested on: RPMI-8226
[6] = tested on: Hs-578T
[7] = tested on: OVCAR-4
[8] = tested on: OVCAR-8
[9] = tested on: NCI-H460
[10] = tested on: T47D
[11] = tested on: PC-3
[12] = tested on: RXF 393
[13] = tested on: HOP-92
[14] = tested on: OVCAR-5
[15] = tested on: HCT-15
[16] = tested on: HOP-62
[17] = tested on: OVCAR-3
[18] = tested on: UACC-62
[19] = tested on: KM12
[20] = tested on: HCT-116
[21] = tested on: SF-295
[22] = tested on: ACHN
[23] = tested on: SNB-19
[24] = tested on: SK-MEL-5
[25] = tested on: 786-0
[26] = tested on: SW-620
[27] = tested on: MOLT-4
[28] = tested on: BT-549
[29] = tested on: CAKI-1
[30] = tested on: SR
[31] = tested on: NCI/ADR-RES
[32] = tested on: MDA-MB-435
[33] = tested on: MDA-MB-231
[34] = tested on: SF-268
[35] = tested on: U-251
[36] = tested on: HT-29
[37] = tested on: EKVX
[38] = tested on: SF-539
[39] = tested on: MDA-N
[40] = tested on: HCC 2998
[41] = tested on: SK-MEL-2
[42] = tested on: HL-60
[43] = tested on: MCF7
[44] = tested on: TK-10
[45] = tested on: M14
[46] = tested on: COLO 205
[47] = tested on: UACC-257
[48] = tested on: K562
[49] = tested on: NCI-H226
[50] = tested on: NCI-H522
[51] = tested on: Malme-3M
[52] = tested on: UO-31
[53] = tested on: SN12C
[54] = tested on: IGROV-1
[55] = tested on: LOX IMVI
[56] = tested on: SK-OV-3
[57] = tested on: NCI-H23
[58] = tested on: A498
[59] = tested on: CCRF-CEM

## CC(C)(C)OC(=O)N1C(C2=COc3ccccc3O2)=COc2cccnc21
[1]
  GI50: 1.74 µM (inactive)
[2]
  GI50: 15.7 µM (inactive)
[3]
  GI50: 1.98 µM (inactive)
[4]
  GI50: 1.33 µM (inactive)
[5]
  GI50: 1.55 µM (inactive)
[6]
  GI50: 3.64 µM (inactive)
[7]
  GI50: 1.6 µM (inactive)
[8]
  GI50: 1.9 µM (inactive)
[9]
  GI50: 1.74 µM (inactive)
[10]
  GI50: 1.42 µM (inactive)
[11]
  GI50: 1.96 µM (inactive)
[12]
  GI50: 1.62 µM (inactive)
[13]
  GI50: 1.25 µM (inactive)
[14]
  GI50: 1.65 µM (inactive)
[15]
  GI50: 1.77 µM
[16]
  GI50: 1.85 µM (inactive)
[17]
  GI50: 1.72 µM (inactive)
[18]
  GI50: 1.58 µM (inactive)
[19]
  GI50: 1.78 µM (inactive)
[20]
  GI50: 1.99 µM (inactive)
[21]
  GI50: 1.95 µM (inactive)
[22]
  GI50: 1.65 µM (inactive)
[23]
  GI50: 2.04 µM (inactive)
[24]
  GI50: 1.75 µM (inactive)
[25]
  GI50: 1.83 µM (inactive)
[26]
  GI50: 2.01 µM (inactive)
[27]
  GI50: 2.06 µM (inactive)
[28]
  GI50: 1.59 µM (inactive)
[29]
  GI50: 2.13 µM (inactive)
[30]
  GI50: 2.18 µM (inactive)
[31]
  GI50: 2 µM (inactive)
[32]
  GI50: 1.74 µM (inactive)
[33]
  GI50: 1.81 µM (inactive)
[34]
  GI50: 1.5 µM (inactive)
[35]
  GI50: 1.73 µM (inactive)
[36]
  GI50: 1.91 µM (inactive)
[37]
  GI50: 1.38 µM (inactive)
[38]
  GI50: 2 µM (inactive)
[39]
  GI50: 1.99 µM (inactive)
[40]
  GI50: 1.69 µM (inactive)
[41]
  GI50: 1.94 µM (inactive)
[42]
  GI50: 1.8 µM (inactive)
[43]
  GI50: 1.66 µM (inactive)
[44]
  GI50: 2.75 µM (inactive)
[45]
  GI50: 1.79 µM (inactive)
[46]
  GI50: 1.9 µM (inactive)
[47]
  GI50: 1.75 µM (inactive)
[48]
  GI50: 1.99 µM (inactive)
[49]
  GI50: 1.71 µM (inactive)
[50]
  GI50: 1.61 µM (inactive)
[51]
  GI50: 1.45 µM (inactive)
[52]
  GI50: 1.64 µM (inactive)
[53]
  GI50: 1.71 µM (inactive)
[54]
  GI50: 1.62 µM (inactive)
[55]
  GI50: 1.74 µM (inactive)
[56]
  GI50: 1.81 µM (inactive)
[57]
  GI50: 1.61 µM (inactive)
[58]
  GI50: 1.71 µM (inactive)

## c1csc(-c2cc(-c3ccsc3)c(-c3ccsc3)s2)c1
[1]
  GI50: > 100 µM (inactive)
[2]
  GI50: > 100 µM (inactive)
[3]
  GI50: > 100 µM (inactive)
[4]
  GI50: > 100 µM (inactive)
[6]
  GI50: > 100 µM (inactive)
[7]
  GI50: > 100 µM (inactive)
[8]
  GI50: > 100 µM (inactive)
[9]
  GI50: > 100 µM (inactive)
[10]
  GI50: 3.49 µM (inactive)
[11]
  GI50: > 100 µM (inactive)
[12]
  GI50: > 100 µM (inactive)
[13]
  GI50: > 100 µM (inactive)
[14]
  GI50: > 100 µM (inactive)
[15]
  GI50: 24 µM
[16]
  GI50: > 100 µM (inactive)
[17]
  GI50: > 100 µM (inactive)
[18]
  GI50: > 100 µM (inactive)
[19]
  GI50: > 100 µM (inactive)
[20]
  GI50: > 100 µM (inactive)
[21]
  GI50: > 100 µM (inactive)
[22]
  GI50: > 100 µM (inactive)
[23]
  GI50: > 100 µM (inactive)
[24]
  GI50: > 100 µM (inactive)
[25]
  GI50: > 100 µM (inactive)
[26]
  GI50: > 100 µM (inactive)
[27]
  GI50: > 100 µM (inactive)
[28]
  GI50: > 100 µM (inactive)
[29]
  GI50: > 100 µM (inactive)
[30]
  GI50: > 100 µM (inactive)
[31]
  GI50: > 100 µM (inactive)
[32]
  GI50: > 100 µM (inactive)
[33]
  GI50: > 100 µM (inactive)
[34]
  GI50: > 100 µM (inactive)
[35]
  GI50: > 100 µM (inactive)
[36]
  GI50: > 100 µM (inactive)
[37]
  GI50: 8.15 µM (inactive)
[38]
  GI50: > 100 µM (inactive)
[39]
  GI50: > 100 µM (inactive)
[40]
  GI50: 68.7 µM (inactive)
[43]
  GI50: 24.8 µM (inactive)
[44]
  GI50: > 100 µM (inactive)
[45]
  GI50: > 100 µM (inactive)
[46]
  GI50: 89.7 µM (inactive)
[47]
  GI50: > 100 µM (inactive)
[48]
  GI50: > 100 µM (inactive)
[49]
  GI50: > 10 µM (inactive)
[50]
  GI50: > 100 µM (inactive)
[51]
  GI50: > 100 µM (inactive)
[52]
  GI50: > 100 µM (inactive)
[53]
  GI50: > 100 µM (inactive)
[54]
  GI50: > 100 µM (inactive)
[59]
  GI50: > 100 µM (inactive)
[56]
  GI50: > 100 µM (inactive)
[57]
  GI50: > 100 µM (inactive)
[58]
  GI50: > 100 µM (inactive)
